Molecules are shown by their SMILES. Structures can show the parent of a compound that is named as a salt.

The first data set can be described thus: DVS water uptake / hygroscopicity. It counts as physicochemical. The following applies: at 25° C./80% RH.
On to `CNc1cc(C)nc(Nc2ccc(OC)c(OC[C@H](O)CN3CCC3)c2)n1` [Compound 5R Fumarate Salt Type A], for which the “water uptake (DVS)” value is given as 7.6%.
On the same count and under the same terms, for `CNc1cc(C)nc(Nc2ccc(OC)c(CNCCN3CCCC3)c2)n1` [Compound 3 Sulfate Sate Type A] the value was 20.5%.
As to `CNc1cc(C)nc(Nc2ccc(OC)c(OC[C@H](O)CN3CCC3)c2)n1` [Compound 5R Hippurate Salt Type A], the “water uptake (DVS)” value was determined as 2.6%.
Regarding `CNc1cc(C)nc(Nc2cnc(OC)c(OC[C@@H]3CCN(C)C3)c2)n1` [Compound 1R Hydrochloride Salt Type A], the “water uptake (DVS)” value was roughly 8%.
The same measure, in the same setting: the result for `CNc1cc(C)nc(Nc2ccc(OC)c(CNCCN3CCCC3)c2)n1` [Compound 3 Hydrochloride Salt Type B] reads 15.3%.

Staying with this data set, now noted: conclusion from DVS where run.
With `CNCc1cnn(-c2cc(Nc3nc(C)cc(NC)n3)ccc2OC)c1` [Compound 6 Hydrochloride Salt Type A], the “hygroscopicity (in words)” value was “very hygroscopic”.
The same measure, in the same setting: for `CNc1cc(C2CCOCC2)c2cc(OC)c(OCCCN3CCCC3)cc2n1` [Compound 2 Freebase Type A] the value was “slightly hygroscopic”; for `CNc1cc(C)nc(Nc2ccc(OC)c(OC[C@H](O)CN3CCC3)c2)n1` [Compound 5R Fumarate Salt Type A], “hygroscopic”; for `CNc1cc(C)nc(Nc2ccc(OC)c(CNCCN3CCCC3)c2)n1` [Compound 3 Sulfate Sate Type A], “highly hygroscopic”.
Take `CNCc1cnn(-c2c(OC)ccc(Nc3nc(C)cc(NC)n3)c2F)c1` [Compound 7 Fumarate Salt Type A]: the “hygroscopicity (in words)” value was “low hygroscopicity”.
For `CNCc1cnn(-c2cc(Nc3nc(C)cc(NC)n3)ccc2OC)c1` [Compound 6 freebase Type A], the “hygroscopicity (in words)” value is “hygroscopic”.
The same measure, in the same setting: the result for `CNc1cc(C)nc(Nc2ccc(OC)c(CNCCN3CCCC3)c2)n1` [Compound 3 Freebase Type A] reads “hygroscopic”.
As to `CNc1cc(C)nc(Nc2ccc(OC)c(OC[C@H](O)CN3CCCC3)c2)n1` [Compound 4R Hydrochloride Salt Type B], the “hygroscopicity (in words)” value is listed as “very hygroscopic”.
As to `CNc1cc(C)nc(Nc2ccc(OC)c(OC[C@H](O)CN3CCCC3)c2)n1` [Compound 4R Succinate Salt Type A], the “hygroscopicity (in words)” value is reported as “hygroscopic”.
On to `CNc1cc(C)nc(Nc2ccc(OC)c(OC[C@H](O)CN3CCCC3)c2)n1` [Compound 4R Hydrochloride Salt Type A], for which the “hygroscopicity (in words)” value is “hygroscopic”.
In the case of `CNc1cc(C)nc(Nc2ccc(OC)c(OC[C@H](O)CN3CCC3)c2)n1` [Compound 5R Hippurate Salt Type A], the “hygroscopicity (in words)” value is given as “hygroscopic”.
On to `CNCc1cnn(-c2cc(Nc3nc(C)cc(NC)n3)ccc2OC)c1` [Compound 6 Adipate Salt Type B], for which the “hygroscopicity (in words)” value was “hygroscopic”.
For `CNc1cc(C)nc(Nc2cnc(OC)c(OC[C@@H]3CCN(C)C3)c2)n1` [Compound 1R Hydrochloride Salt Type A], the “hygroscopicity (in words)” value is recorded as “hygroscopic”.
For `CNc1cc(C)nc(Nc2ccc(OC)c(CNCCN3CCCC3)c2)n1` [Compound 3 Hydrochloride Salt Type B], the “hygroscopicity (in words)” value is recorded as “hygroscopic”.
Same read-out and setting: the result for `CNc1cc(C)nc(Nc2ccc(OC)c(OC[C@H](O)CN3CCCC3)c2)n1` [Compound 4R Freebase Type C] reads “hygroscopic”.

Staying with this data set, now noted: from 0% to 80% RH.
For `CNCc1cnn(-c2cc(Nc3nc(C)cc(NC)n3)ccc2OC)c1` [Compound 6 Hydrochloride Salt Type A], the “water uptake (DVS)” value was “around 19.4%”.
Same read-out and setting: the result for `CNc1cc(C2CCOCC2)c2cc(OC)c(OCCCN3CCCC3)cc2n1` [Compound 2 Freebase Type A] reads “around 1.0%”; that for `CNc1cc(C)nc(Nc2ccc(OC)c(CNCCN3CCCC3)c2)n1` [Compound 3 Glycolate Salt Type B], “around 45.3%”.
As to `CNCc1cnn(-c2c(OC)ccc(Nc3nc(C)cc(NC)n3)c2F)c1` [Compound 7 Fumarate Salt Type C], the “water uptake (DVS)” value is “around 1.9%”.
For `CNCc1cnn(-c2cc(Nc3nc(C)cc(NC)n3)ccc2OC)c1` [Compound 6 freebase Type A], the “water uptake (DVS)” value was “around 4.4%”.
Same read-out and setting: for `CNc1cc(C)nc(Nc2ccc(OC)c(CNCCN3CCCC3)c2)n1` [Compound 3 Freebase Type A] the value was “around 12.9%”; for `CNc1cc(C)nc(Nc2ccc(OC)c(OC[C@H](O)CN3CCCC3)c2)n1` [Compound 4R Hydrochloride Salt Type B], “around 17.4%”.
In the case of `CNc1cc(C)nc(Nc2ccc(OC)c(OC[C@H](O)CN3CCCC3)c2)n1` [Compound 4R Succinate Salt Type A], the “water uptake (DVS)” value is listed as “around 9.6%”.
As to `CNCc1cnn(-c2cc(Nc3nc(C)cc(NC)n3)ccc2OC)c1` [Compound 6 Adipate Salt Type B], the “water uptake (DVS)” value was “around 8.8%”.
Turning to `CNc1cc(C)nc(Nc2ccc(OC)c(OC[C@H](O)CN3CCCC3)c2)n1` [Compound 4R Freebase Type C], the “water uptake (DVS)” value is reported as “around 8.7%”.

Staying with this data set, now noted: from 50% RH to 80% RH at 25° C.
`CNc1cc(C)nc(Nc2ccc(OC)c(OC[C@H](O)CN3CCCC3)c2)n1` [Compound 4R Hydrochloride Salt Type A]: the “water uptake (DVS)” value is “around 4%”.

A further data set is described as follows: XRPD before and after DVS (form change). To be noted: state of sample post DVS. It counts as physicochemical.
In the case of `CNCc1cnn(-c2cc(Nc3nc(C)cc(NC)n3)ccc2OC)c1` [Compound 6 Hydrochloride Salt Type A], the “form change after DVS” value was “Form change was observed”.
The same measure, in the same setting: the result for `CNc1cc(C2CCOCC2)c2cc(OC)c(OCCCN3CCCC3)cc2n1` [Compound 2 Freebase Type A] reads “No form change”; that for `CNc1cc(C)nc(Nc2ccc(OC)c(OC[C@H](O)CN3CCC3)c2)n1` [Compound 5R Fumarate Salt Type A], “No significant form change”; that for `CNc1cc(C)nc(Nc2ccc(OC)c(CNCCN3CCCC3)c2)n1` [Compound 3 Sulfate Sate Type A], “No significant form change”.
In the case of `CNc1cc(C)nc(Nc2ccc(OC)c(CNCCN3CCCC3)c2)n1` [Compound 3 Glycolate Salt Type B], the “form change after DVS” value is reported as “deliquescence”.
Turning to `CNc1cc(C)nc(Nc2ccc(OC)c(CNCCN3CCCC3)c2)n1` [Compound 3 Hydrochloride Salt Type A], the “form change after DVS” value is on record as “new hydrate form”.
As for `CNCc1cnn(-c2cc(Nc3nc(C)cc(NC)n3)ccc2OC)c1` [Compound 6 freebase Type A], the “form change after DVS” value is “No form change”.
On the same count and under the same terms, for `CNc1cc(C)nc(Nc2ccc(OC)c(CNCCN3CCCC3)c2)n1` [Compound 3 Freebase Type A] the value was “No form change”; for `CNc1cc(C)nc(Nc2ccc(OC)c(OC[C@H](O)CN3CCCC3)c2)n1` [Compound 4R Hydrochloride Salt Type B], “No form change”.
Turning to `CNc1cc(C)nc(Nc2ccc(OC)c(OC[C@H](O)CN3CCCC3)c2)n1` [Compound 4R Succinate Salt Type A], the “form change after DVS” value is “No form change”.
As to `CNc1cc(C)nc(Nc2ccc(OC)c(OC[C@H](O)CN3CCCC3)c2)n1` [Compound 4R Hydrochloride Salt Type A], the “form change after DVS” value was “change of XRPD pattern was observed”.
Regarding `CNc1cc(C)nc(Nc2ccc(OC)c(OC[C@H](O)CN3CCC3)c2)n1` [Compound 5R Hippurate Salt Type A], the “form change after DVS” value is “No significant form change”.
In the case of `CNCc1cnn(-c2cc(Nc3nc(C)cc(NC)n3)ccc2OC)c1` [Compound 6 Adipate Salt Type B], the “form change after DVS” value was “form change from Compound 6 Adipate Salt Type B to Compound 6 Adipate Salt Type A”.
The same measure, in the same setting: the result for `CNc1cc(C)nc(Nc2cnc(OC)c(OC[C@@H]3CCN(C)C3)c2)n1` [Compound 1R Hydrochloride Salt Type A] reads “No change in XRPD pattern”; that for `CNc1cc(C)nc(Nc2ccc(OC)c(CNCCN3CCCC3)c2)n1` [Compound 3 Hydrochloride Salt Type B], “change of XRPD pattern was observed”.
With `CNc1cc(C)nc(Nc2ccc(OC)c(OC[C@H](O)CN3CCCC3)c2)n1` [Compound 4R Freebase Type C], the “form change after DVS” value was “No form change”.

The nature of a further data set: stressing at 40° C./75% RH (form change). Format: physicochemical.
Conditions: not given
On to `CNc1cc(C)nc(Nc2ccc(OC)c(OC[C@H](O)CN3CCC3)c2)n1` [Compound 5R Gentisate Salt Type E], for which the “form change after stressing” value was “No form change”.

The next data set in a line: appearance under ambient condition. Format: physicochemical. The following applies: wet solid under ambient condition; not tested by TGA/DSC.
As for `CNCc1cnn(-c2cc(Nc3nc(C)cc(NC)n3)ccc2OC)c1` [Compound 6 Glycolate Salt Type A], the “hygroscopicity (in words)” value is recorded as “high hygroscopicity”.

These data come from patent US20220324851A1, “AMINE-SUBSTITUTED HETEROCYCLIC COMPOUNDS AS EHMT2 INHIBITORS, SALTS THEREOF, AND METHODS OF SYNTHESIS THEREOF” (Epizyme, Inc., priority 2017, published 2022).
